Patent publication US20140030311A1, “MONOLITHIC INTRAVAGINAL RINGS COMPRISING PROGESTERONE AND METHODS OF MAKING AND USES THEREOF” (TEVA WOMEN'S HEALTH, INC., priority 2009, published 2014)

Columns and labels:
endometrium = assay: Post-study mock cycle and donor egg IVF of the two ring non-responders on other progesterone; type: in vivo, human; details: for outcome of post-study donor egg IVF: single subject; for biopsy result in post-study mock cycle: single subject without transformation on the ring
Source text: There was a fibroid found in surgery post-study, which could have affected blood supply to the endometrium. […] The subject is considering one more IVF attempt with a donor egg.

IVF cycles = details: luteal phase support in IVF cycles; Soliman et al. 1994; cited from earlier work

Compound | outcome of post-study donor egg IVF (endometrium) | biopsy result in post-study mock cycle (endometrium) | pregnancy rates versus placebo (IVF cycles)
CC(=O)[C@H]1CC[C@H]2[C@@H]3CCC4=CC(=O)CC[C@]4(C)[C@H]3CC[C@]12C [micronized progesterone, pregn-4-ene-3,20-dione] | negative βhCG | adequate transformation | –
CC(=O)[C@H]1CC[C@H]2[C@@H]3CCC4=CC(=O)CC[C@]4(C)[C@H]3CC[C@]12C [IM progesterone, pregn-4-ene-3,20-dione] | ongoing pregnancy with delivery | adequate transformation | –
CC(=O)[C@H]1CC[C@H]2[C@@H]3CCC4=CC(=O)CC[C@]4(C)[C@H]3CC[C@]12C [progesterone, pregn-4-ene-3,20-dione] | – | – | significantly higher pregnancy rates than placebo
